Assay results taken from the supplement of paper PMC4862054.

How the values were obtained:
[1] = system: BT-474; settings: 72 h
Procedure, shortened: (§1)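 EC50 was fitted from dose-response curves and censored at the highest concentration tested. To build those curves, breast cancer cell lines (20 µl suspension) were seeded into 384-well plates containing compound at 5 concentrations in 10-fold steps over a compound-specific 10,000-fold range and incubated for 72 h. Readouts were CellTox Green fluorescence (485/520 nm) for cell death and then CellTiter-Glo luminescence for viability, with each plate normalised to 0.1 % DMSO and a positive kill control.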

[2] = system: BT-549; settings: 72 h
Procedure, shortened: as §1

[3] = system: CAL-120; settings: 72 h
Procedure, shortened: as §1

[4] = system: CAL-148; settings: 72 h
Procedure, shortened: as §1

[5] = system: CAL-51; settings: 72 h
Procedure, shortened: as §1

[6] = system: CAL-85-1; settings: 72 h
Procedure, shortened: as §1

[7] = system: DU-4475; settings: 72 h
Procedure, shortened: as §1

[8] = system: HCC1143; settings: 72 h
Procedure, shortened: as §1

[9] = system: HCC1599; settings: 72 h
Procedure, shortened: as §1

[10] = system: HCC1937; settings: 72 h
Procedure, shortened: as §1

[11] = system: HDQ-P1; settings: 72 h
Procedure, shortened: as §1

[12] = system: Hs578T; settings: 72 h
Procedure, shortened: as §1

[13] = system: MCF-10A; settings: 72 h
Procedure, shortened: as §1

[14] = system: MDA-MB-231; settings: 72 h
Procedure, shortened: as §1

[15] = system: MDA-MB-436; settings: 72 h
Procedure, shortened: as §1

[16] = system: MDA-MB-453; settings: 72 h
Procedure, shortened: as §1

[17] = system: MDA-MB-468; settings: 72 h
Procedure, shortened: as §1

[18] = system: MFM-223; settings: 72 h
Procedure, shortened: as §1

[19] = system: SK-BR-3; settings: 72 h
Procedure, shortened: as §1

[20] = system: CAL-148; settings: 72 h; remark: listed apart in the source
Procedure, shortened: (§2)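 Compound dissolved in 5 µl medium was placed in 384-well plates before 20 µl of breast cancer cell suspension was added, and the plates were incubated for 72 h. Cells then received 2.5 µl CellTiter-Blue for 2 h at 37 °C, and fluorescence was read at 560/590 nm. EC50 values come from percent-inhibition dose-response fits that were censored at the highest concentration, with plates normalised to vehicle and a positive kill control and rows with a zero drug sensitivity score excluded.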

[21] = system: CAL-51; settings: 72 h; remark: listed apart in the source
Procedure, shortened: as §2

[22] = system: CAL-85-1; settings: 72 h; remark: listed apart in the source
Procedure, shortened: as §2

[23] = system: DU-4475; settings: 72 h; remark: listed apart in the source
Procedure, shortened: as §2

[24] = system: HDQ-P1; settings: 72 h; remark: listed apart in the source
Procedure, shortened: as §2

[25] = system: MDA-MB-453; settings: 72 h; remark: listed apart in the source
Procedure, shortened: as §2

[26] = system: BT-549; settings: 72 h; remark: listed apart in the source
Procedure, shortened: as §2

[27] = system: CAL-120; settings: 72 h; remark: listed apart in the source
Procedure, shortened: as §2

[28] = system: HCC1143; settings: 72 h; remark: listed apart in the source
Procedure, shortened: as §2

[29] = system: HCC1599; settings: 72 h; remark: listed apart in the source
Procedure, shortened: as §2

[30] = system: HCC1937; settings: 72 h; remark: listed apart in the source
Procedure, shortened: as §2

[31] = system: Hs578T; settings: 72 h; remark: listed apart in the source
Procedure, shortened: as §2

[32] = system: MDA-MB-231; settings: 72 h; remark: listed apart in the source
Procedure, shortened: as §2

[33] = system: MDA-MB-436; settings: 72 h; remark: listed apart in the source
Procedure, shortened: as §2

[34] = system: MDA-MB-468; settings: 72 h; remark: listed apart in the source
Procedure, shortened: as §2

[35] = system: MFM-223; settings: 72 h; remark: listed apart in the source
Procedure, shortened: as §2

[36] = system: SK-BR-3; settings: 72 h; remark: listed apart in the source
Procedure, shortened: as §2

[37] = system: MDA-MB-231; assay: normalised viability (% of control), CellTiter-Blue; higher = more viable cells (about 100 = DMSO control); settings: incubation time: 72 h
Procedure, shortened: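 The reported figure is normalised viability at a single listed concentration of the series. Breast cancer cell lines (20 µl suspension) went onto 384-well plates holding compound in 5 µl medium for 72 h. CellTiter-Blue (2.5 µl, 2 h, 37 °C) was read by fluorescence at 560/590 nm, and each plate was scaled to vehicle at 100 and a positive kill control at 0.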

COc1cccc2c1C(=O)c1c(O)c3c(c(O)c1C2=O)C[C@@](O)(C(C)=O)C[C@@H]3O[C@H]1C[C@H](N)[C@H](O)[C@H](C)O1 [Daunorubicin]
EC50, CellTiter-Glo [1]: 169 nM | EC50, CellTiter-Glo [2]: 129 nM | EC50, CellTiter-Glo [3]: 227 nM | EC50, CellTiter-Glo [4]: 134 nM | EC50, CellTiter-Glo [5]: 84.2 nM | EC50, CellTiter-Glo [6]: 380 nM | EC50, CellTiter-Glo [7]: 211 nM | EC50, CellTiter-Glo [8]: 535 nM | EC50, CellTiter-Glo [9]: 570 nM | EC50, CellTiter-Glo [10]: 692 nM | EC50, CellTiter-Glo [11]: 519 nM | EC50, CellTiter-Glo [12]: 229 nM | EC50, CellTiter-Glo [13]: 633 nM | EC50, CellTiter-Glo [14]: 221 nM | EC50, CellTiter-Glo [15]: 175 nM | EC50, CellTiter-Glo [16]: 470 nM | EC50, CellTiter-Glo [17]: 109 nM | EC50, CellTiter-Glo [18]: 784 nM | EC50, CellTiter-Glo [19]: 254 nM | EC50, CellTiter-Blue viability [20]: 66.1 nM | EC50, CellTiter-Blue viability [21]: 59 nM | EC50, CellTiter-Blue viability [22]: 290 nM | EC50, CellTiter-Blue viability [23]: 56.4 nM | EC50, CellTiter-Blue viability [24]: 338 nM | EC50, CellTiter-Blue viability [25]: 465 nM | EC50, CellTiter-Blue viability [26]: 141 nM | EC50, CellTiter-Blue viability [27]: 41.8 nM | EC50, CellTiter-Blue viability [28]: 46.8 nM | EC50, CellTiter-Blue viability [29]: 444 nM | EC50, CellTiter-Blue viability [30]: 24.7 nM | EC50, CellTiter-Blue viability [31]: 150 nM | EC50, CellTiter-Blue viability [32]: 56.1 nM | EC50, CellTiter-Blue viability [33]: 78.5 nM | EC50, CellTiter-Blue viability [34]: 98.2 nM | EC50, CellTiter-Blue viability [35]: 667 nM | EC50, CellTiter-Blue viability [36]: 66.4 nM | normalised viability ([37]; 1 nM): 101% | normalised viability ([37]; 100 nM): 38.4% | normalised viability ([37]; 1000 nM): 8.64%

COC1=C2C[C@@H](C)C[C@H](OC)[C@H](O)[C@@H](C)/C=C(\C)[C@H](OC(N)=O)[C@@H](OC)/C=C\C=C(/C)C(=O)NC(=CC1=O)C2=O [Geldanamycin]
EC50, CellTiter-Glo [1]: 4080 nM | EC50, CellTiter-Glo [2]: 3180 nM | EC50, CellTiter-Glo [3]: 6700 nM | EC50, CellTiter-Glo [4]: 7190 nM | EC50, CellTiter-Glo [5]: 3480 nM | EC50, CellTiter-Glo [6]: 2680 nM | EC50, CellTiter-Glo [7]: 2470 nM | EC50, CellTiter-Glo [8]: 6310 nM | EC50, CellTiter-Glo [9]: 5810 nM | EC50, CellTiter-Glo [10]: 2130 nM | EC50, CellTiter-Glo [11]: 3910 nM | EC50, CellTiter-Glo [12]: 5350 nM | EC50, CellTiter-Glo [13]: 4380 nM | EC50, CellTiter-Glo [14]: 3390 nM | EC50, CellTiter-Glo [15]: 1050 nM | EC50, CellTiter-Glo [16]: 3390 nM | EC50, CellTiter-Glo [17]: 4130 nM | EC50, CellTiter-Glo [18]: 666 nM | EC50, CellTiter-Glo [19]: 1820 nM | EC50, CellTiter-Blue viability [20]: 223 nM | EC50, CellTiter-Blue viability [21]: 535 nM | EC50, CellTiter-Blue viability [22]: 270 nM | EC50, CellTiter-Blue viability [23]: 137 nM | EC50, CellTiter-Blue viability [24]: 81.4 nM | EC50, CellTiter-Blue viability [25]: 96.5 nM | EC50, CellTiter-Blue viability [26]: 46.8 nM | EC50, CellTiter-Blue viability [27]: 38.1 nM | EC50, CellTiter-Blue viability [28]: 36.6 nM | EC50, CellTiter-Blue viability [29]: 270 nM | EC50, CellTiter-Blue viability [30]: 47.1 nM | EC50, CellTiter-Blue viability [31]: 90.5 nM | EC50, CellTiter-Blue viability [32]: 63.1 nM | EC50, CellTiter-Blue viability [33]: 40.9 nM | EC50, CellTiter-Blue viability [34]: 64.7 nM | EC50, CellTiter-Blue viability [35]: 90 nM | EC50, CellTiter-Blue viability [36]: 46.8 nM | normalised viability ([37]; 10 nM): 102% | normalised viability ([37]; 1000 nM): 15.3% | normalised viability ([37]; 10000 nM): 4.86%
